Reference: patent publication US7132421B2, “CIS-imidazoles” (Hoffmann-La Roche Inc., priority 2003, dated 2006)

Target: interaction between p53 and MDM2 proteins (recombinant GST-tagged MDM2) (Homo sapiens, UniProt Q00987)
Experiment: ELISA of inhibition of p53-MDM2 interaction (GST-tagged MDM2 binding to immobilized p53-like peptide)
Conditions: absorption at 450 nm, triplicate

interaction between p53 and MDM2 proteins (recombinant GST-tagged MDM2), sequence (Q00987 whole entry): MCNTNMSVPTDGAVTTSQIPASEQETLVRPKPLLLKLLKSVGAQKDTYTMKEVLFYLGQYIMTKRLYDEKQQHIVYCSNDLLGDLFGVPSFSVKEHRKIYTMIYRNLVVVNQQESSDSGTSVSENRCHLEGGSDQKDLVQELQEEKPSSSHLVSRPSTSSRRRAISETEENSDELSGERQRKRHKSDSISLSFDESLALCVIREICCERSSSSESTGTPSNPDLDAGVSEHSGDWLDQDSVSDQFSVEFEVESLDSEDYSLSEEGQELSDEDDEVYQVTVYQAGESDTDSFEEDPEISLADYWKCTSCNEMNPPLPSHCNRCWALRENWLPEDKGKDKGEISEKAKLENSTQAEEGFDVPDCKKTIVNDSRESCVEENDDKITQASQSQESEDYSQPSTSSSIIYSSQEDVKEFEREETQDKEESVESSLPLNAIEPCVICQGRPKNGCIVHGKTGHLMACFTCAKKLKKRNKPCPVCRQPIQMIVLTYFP

Row | IC50 [µM] | Structure (SMILES)
1 | 5.5 | CCOc1cc(OC)ccc1C1=N[C@H](CC2CCCC2)[C@H](c2ccc(Cl)cc2)N1C(=O)N1CCC(N2CCCC2)CC1 (relative stereo) [Example 28, [5-(4-Chloro-phenyl)-4-cyclopentylmethyl-2-(2-ethoxy-4-methoxy-phenyl)-4,5-dihydro-imidazol-1-yl]-(4-pyrrolidin-1-yl-piperidin-1-yl)-methanone]
2 | 0.7 | CCCCC[C@H]1N=C(c2ccc(OC)cc2OCC)N(C(=O)N2CCC(N3CCCC3)CC2)[C@H]1c1ccc(Cl)cc1 (relative stereo) [Example 55, [5-(4-Chloro-phenyl)-2-(2-ethoxy-4-methoxy-phenyl)-4-pentyl-4,5-dihydro-imidazol-1-yl]-(4-pyrrolidin-1-yl-piperidin-1-yl)-methanone]
3 | 13.2 | CCOc1cc(OC)ccc1C1=N[C@H](CC2CCCC2)[C@H](c2ccc(Cl)cc2)N1C(=O)N1CCN(C)CC1 (stereo in doubt) [Example 24, [5-(4-Chloro-phenyl)-4-cyclopentylmethyl-2-(2-ethoxy-4-methoxy-phenyl)-4,5-dihydro-imidazol-1-yl]-(4-methyl-piperazin-1-yl)-methanone]
4 | 45 | CCC[C@H]1N=C(c2ccc(OC)cc2OCC)N(C(=O)N2CCC(N3CCCC3)CC2)[C@H]1c1ccc(Cl)cc1 (stereo in doubt) [Example 26, [5-(4-Chloro-phenyl)-2-(2-ethoxy-4-methoxy-phenyl)-4-propyl-4,5-dihydro-imidazol-1-yl]-(4-pyrrolidin-1-yl-piperidin-1-yl)-methanone]
